Assay results reported in PubChem BioAssay (NCI).
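96-well plates; 48 h exposure; 5 concentrations. Endpoints by linear interpolation between flanking doses. Not reached: highest tested concentration assigned. Here, GI50 denotes the concentration required for 50% inhibition of growth. TGI denotes the concentration required for complete inhibition of growth.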

Key:
Experiment in all cases: NCI-60 cell line screen, 48 h
HCT-116 colon = system: HCT-116 colon
HL-60(TB) leukemia = system: HL-60(TB) leukemia
HT29 colon = system: HT29 colon
MOLT-4 leukemia = system: MOLT-4 leukemia
NCI-H226 lung = system: NCI-H226 lung
NCI-H23 lung = system: NCI-H23 lung
SK-MEL-28 melanoma = system: SK-MEL-28 melanoma
SK-MEL-5 melanoma = system: SK-MEL-5 melanoma
SN12C renal = system: SN12C renal
MALME-3M melanoma = system: MALME-3M melanoma

SMILES | TGI (HCT-116 colon) [µM] | TGI (HL-60(TB) leukemia) [µM] | TGI (HT29 colon) [µM] | TGI (MOLT-4 leukemia) [µM] | TGI (NCI-H226 lung) [µM] | TGI (NCI-H23 lung) [µM] | TGI (SK-MEL-28 melanoma) [µM] | TGI (SK-MEL-5 melanoma) [µM] | TGI (SN12C renal) [µM] | TGI (MALME-3M melanoma) [µM] | GI50 (HCT-116 colon) [µM] | GI50 (HT29 colon) [µM] | GI50 (MOLT-4 leukemia) [µM] | GI50 (NCI-H23 lung) [µM] | GI50 (SK-MEL-28 melanoma) [µM] | GI50 (SK-MEL-5 melanoma) [µM] | GI50 (SN12C renal) [µM] | GI50 (MALME-3M melanoma) [µM] | GI50 (NCI-H226 lung) [µM] | GI50 (HL-60(TB) leukemia) [µM]
Nc1ccc2c(c1)C(=O)c1ccc(F)cc1-2 | > 100 | > 100 | > 100 | > 100 | > 100 | > 100 | > 100 | > 100 | > 100 | – | – | – | – | – | – | – | – | – | – | –
CC(=O)Nc1ccc2nncnc2c1 | > 100 | > 100 | > 100 | > 100 | > 100 | > 100 | > 100 | > 100 | > 100 | – | – | – | – | – | – | – | – | – | – | –
N=C(N)n1ncc(Cl)c(Cl)c1=O | 3.32 | – | – | 4.64 | 18.3 | 5.06 | 5.26 | 15.2 | 8.44 | 4.98 | – | – | – | – | – | – | – | – | – | –
COc1ccc(/C=C/c2cc(OC)c(O[Si](C)(C)C(C)(C)C)c(OC)c2)cc1 | > 100 | – | > 100 | > 100 | > 100 | > 100 | 86.6 | > 100 | > 100 | > 100 | – | – | – | – | – | – | – | – | – | –
C=C1CC[C@@H]2C(C)(C)[C@@H](O)CC[C@@]2(C)[C@@H]1COc1ccc2ccc(=O)oc2c1 | 28 | 45.6 | 32.6 | 35.6 | – | 33.8 | 30.1 | 18 | 30.8 | 31.2 | 11.1 | 8.61 | 7.22 | 13.8 | 15.1 | 5.68 | 14.1 | – | – | –
C=C1C(=O)OC2CCCCC3OC3C12 (stereo not drawn) | 13 | 9.72 | 32.2 | 33.2 | – | 32.6 | 23.9 | 19.5 | 21.3 | 23.1 | – | – | – | – | – | – | – | – | – | –
COc1ccc(CN2c3ccccc3Sc3ccccc32)cc1F | > 100 | – | > 100 | > 100 | > 100 | > 100 | > 100 | > 100 | > 100 | > 100 | 0.437 | 0.352 | 0.438 | 0.682 | > 55 | 0.446 | 1.13 | > 100 | > 47.1 | –
COc1ccc(Nc2c3ccccc3nc3c2c2ccccc2n3C)cc1 | > 100 | 45.6 | > 100 | 5.36 | > 100 | > 100 | > 100 | 37.4 | > 100 | – | 30 | 13.6 | 1.88 | 34.8 | > 100 | 14 | 58.6 | – | 27.6 | 3.99
COC(=O)/C(C#N)=C\N1CCN(C(=O)c2ccco2)C1=S | 16 | > 100 | 55.1 | > 100 | – | 27.7 | 79.6 | 31 | 14.4 | 63.7 | 3.95 | 12.2 | 7.41 | 13.2 | 13 | 14.8 | 3.69 | 32.7 | – | 6.94
O=C(CC(=O)N1N=C(n2ccc3ccccc32)CC1c1ccccc1)Nc1cccc(Cl)c1 (stereo not drawn) | > 100 | > 100 | > 100 | > 100 | – | > 100 | > 100 | – | > 100 | > 100 | – | – | – | – | – | – | – | – | – | –
NC(=O)c1ccccc1NC(=O)C(=O)C(C(=O)c1ccc2ccccc2c1)C1OC(=O)c2ccccc21 (stereo not drawn) | 23 | – | 75.8 | 23.7 | 9.88 | – | – | 24.6 | 37.1 | 26.3 | – | – | – | – | – | – | – | – | – | –
COc1ccc(/C=C/C(=O)c2sc(N)nc2C)cc1 | – | > 100 | > 100 | > 100 | – | > 100 | > 100 | > 100 | > 100 | > 100 | – | – | – | – | – | – | – | – | – | –
Cc1cc(C)nc(NS(=O)(=O)c2ccc(Nc3c4ccccc4nc4c(C(=O)NCCN(C)C)ccc(Cl)c34)cc2)n1 | 7.23 | 7.6 | 4.8 | – | 2.77 | 11.7 | 17.9 | 15.2 | 8.2 | – | – | – | – | – | – | – | – | – | – | –
CC(C)c1cc(C(C)C)c(S(=O)(=O)NN)c(C(C)C)c1 | > 100 | – | > 100 | – | – | > 100 | > 100 | > 100 | > 100 | > 100 | – | – | – | – | – | – | – | – | – | –
COC1=C(OC)C(=O)C(/C=C(\C)C(=O)O)=C(C)C1=O | > 100 | > 100 | > 100 | > 100 | – | > 100 | > 100 | > 100 | > 100 | > 100 | > 100 | > 100 | > 100 | > 100 | > 100 | > 100 | > 100 | > 100 | – | > 100
C=CCC(C(=O)OC)C1(C(=O)OC)c2[nH]c3ccccc3c2CCN1Cc1ccccc1 (stereo not drawn) | > 100 | > 100 | > 100 | > 100 | – | > 100 | > 100 | > 100 | > 100 | > 100 | – | – | – | – | – | – | – | – | – | –
Cc1ccc(SSCCCS(=O)O)cc1 | > 100 | 6.49 | > 100 | 50.6 | – | > 100 | > 100 | > 100 | > 100 | > 100 | – | – | – | – | – | – | – | – | – | –
